Measured values as given in ChEMBL document CHEMBL1201861, “Genomics of Drug Sensitity in Cancer screening data, Wellcome Trust Sanger Institute”.

Assays:
Assay in all cases: cells
SW13 = assay type: functional, cell-based, Homo sapiens; conditions: Homo sapiens, SW13
Description: SANGER: Inhibition of human SW13 cell growth in a cell viability assay.

UO-31 = assay type: functional, cell-based, Homo sapiens; conditions: Homo sapiens, UO-31
Description: SANGER: Inhibition of human U031 cell growth in a cell viability assay.

MDA-MB-415 = assay type: functional, cell-based, Homo sapiens; conditions: Homo sapiens, MDA-MB-415
SW1463 = assay type: functional, cell-based, Homo sapiens; conditions: Homo sapiens, SW1463
Description: SANGER: Inhibition of human SW1463 cell growth in a cell viability assay.

HO-1-N-1 = assay type: functional, cell-based, Homo sapiens; conditions: Homo sapiens, HO-1-N-1
Description: SANGER: Inhibition of human HO-1-N-1 cell growth in a cell viability assay.

MKN-7 = assay type: functional, cell-based, Homo sapiens; conditions: Homo sapiens, MKN-7
Description: SANGER: Inhibition of human MKN7 cell growth in a cell viability assay.

FaDu = assay type: functional, cell-based, Homo sapiens; conditions: Homo sapiens, FaDu
Description: SANGER: Inhibition of human FADU cell growth in a cell viability assay.

BFTC-905 = assay type: functional, cell-based, Homo sapiens; conditions: Homo sapiens, BFTC-905
Description: SANGER: Inhibition of human BFTC-905 cell growth in a cell viability assay.

SW1417 = assay type: functional, cell-based, Homo sapiens; conditions: Homo sapiens, SW1417
Description: SANGER: Inhibition of human SW1417 cell growth in a cell viability assay.

DU-145 = assay type: functional, cell-based, Homo sapiens; conditions: Homo sapiens, DU-145
Description: SANGER: Inhibition of human DU-145 cell growth in a cell viability assay.

KYSE-450 = assay type: functional, cell-based, Homo sapiens; conditions: Homo sapiens, KYSE-450
Description: SANGER: Inhibition of human KYSE-450 cell growth in a cell viability assay.

COR-L23 = assay type: functional, cell-based, Homo sapiens; conditions: Homo sapiens, COR-L23
Description: SANGER: Inhibition of human COR-L23 cell growth in a cell viability assay.

CAMA-1 = assay type: functional, cell-based, Homo sapiens; conditions: Homo sapiens, CAMA-1
Description: SANGER: Inhibition of human CAMA-1 cell growth in a cell viability assay.

PANC-08-13 = assay type: functional, cell-based, Homo sapiens; conditions: Homo sapiens, PANC-08-13
Description: SANGER: Inhibition of human PANC-08-13 cell growth in a cell viability assay.

HSC-4 = assay type: functional, cell-based, Homo sapiens; conditions: Homo sapiens, HSC-4
Description: SANGER: Inhibition of human HSC-4 cell growth in a cell viability assay.

PC-3 = assay type: functional, cell-based, Homo sapiens; conditions: Homo sapiens, PC-3
Description: SANGER: Inhibition of human PC-3 cell growth in a cell viability assay.

HMV-2 cell line = assay type: functional, cell-based, Homo sapiens; conditions: Homo sapiens, HMV-2
Description: SANGER: Inhibition of human HMV-II cell growth in a cell viability assay.

CAPAN-1 = assay type: functional, cell-based, Homo sapiens; conditions: Homo sapiens, CAPAN-1
Description: SANGER: Inhibition of human CAPAN-1 cell growth in a cell viability assay.

A673 = assay type: functional, cell-based, Homo sapiens; conditions: Homo sapiens, A673
Description: SANGER: Inhibition of human A673 cell growth in a cell viability assay.

HCC70 = assay type: functional, cell-based, Homo sapiens; conditions: Homo sapiens, HCC70
Description: SANGER: Inhibition of human HCC70 cell growth in a cell viability assay.

23132-87 = assay type: functional, cell-based, Homo sapiens; conditions: Homo sapiens
Description: SANGER: Inhibition of human 23132-87 cell growth in a cell viability assay.

CAL-33 = assay type: functional, cell-based, Homo sapiens; conditions: Homo sapiens, CAL-33
Description: SANGER: Inhibition of human CAL-33 cell growth in a cell viability assay.

MG-63 = assay type: functional, cell-based, Homo sapiens; conditions: Homo sapiens, MG-63
Description: SANGER: Inhibition of human MG-63 cell growth in a cell viability assay.

SK-MEL-30 = assay type: functional, cell-based, Homo sapiens; conditions: Homo sapiens, SK-MEL-30
Description: SANGER: Inhibition of human SK-MEL-30 cell growth in a cell viability assay.

BCPAP = assay type: functional, cell-based, Homo sapiens; conditions: Homo sapiens, BCPAP
Description: SANGER: Inhibition of human BCPAP cell growth in a cell viability assay.

A-431 = assay type: functional, cell-based, Homo sapiens; conditions: Homo sapiens, A-431
Description: SANGER: Inhibition of human A431 cell growth in a cell viability assay.

LCLC-103H cell line = assay type: functional, cell-based, Homo sapiens; conditions: Homo sapiens, LCLC-103H
Description: SANGER: Inhibition of human LCLC-103H cell growth in a cell viability assay.

MDA-MB-453 = assay type: functional, cell-based, Homo sapiens; conditions: Homo sapiens, MDA-MB-453
Description: SANGER: Inhibition of human MDA-MB-453 cell growth in a cell viability assay.

ACHN = assay type: functional, cell-based, Homo sapiens; conditions: Homo sapiens, ACHN
Description: SANGER: Inhibition of human ACHN cell growth in a cell viability assay.

Calu-3 = assay type: functional, cell-based, Homo sapiens; conditions: Homo sapiens, Calu-3
Description: SANGER: Inhibition of human Calu-3 cell growth in a cell viability assay.

SK-MES-1 = assay type: functional, cell-based, Homo sapiens; conditions: Homo sapiens, SK-MES-1
Description: SANGER: Inhibition of human SK-MES-1 cell growth in a cell viability assay.

D-423MG = assay type: functional, cell-based, Homo sapiens; conditions: Homo sapiens, D-423MG
Description: SANGER: Inhibition of human D-423MG cell growth in a cell viability assay.

EFM-19 = assay type: functional, cell-based, Homo sapiens; conditions: Homo sapiens, EFM-19
Description: SANGER: Inhibition of human EFM-19 cell growth in a cell viability assay.

8505C = assay type: functional, cell-based, Homo sapiens; conditions: Homo sapiens, 8505C
Description: SANGER: Inhibition of human 8505C cell growth in a cell viability assay.

NCI-H2405 = assay type: functional, cell-based, Homo sapiens; conditions: Homo sapiens, NCI-H2405
Description: SANGER: Inhibition of human NCI-H2405 cell growth in a cell viability assay.

NB14 = assay type: functional, cell-based, Homo sapiens; conditions: Homo sapiens, NB14
Description: SANGER: Inhibition of human NB14 cell growth in a cell viability assay.

NCI-H2052 = assay type: functional, cell-based, Homo sapiens; conditions: Homo sapiens, NCI-H2052
Description: SANGER: Inhibition of human NCI-H2052 cell growth in a cell viability assay.

COLO-680N = assay type: functional, cell-based, Homo sapiens; conditions: Homo sapiens, COLO-680N
Description: SANGER: Inhibition of human COLO-680N cell growth in a cell viability assay.

LK-2 = assay type: functional, cell-based, Homo sapiens; conditions: Homo sapiens, LK-2
Description: SANGER: Inhibition of human LK-2 cell growth in a cell viability assay.

CAL-62 = assay type: functional, cell-based, Homo sapiens; conditions: Homo sapiens, CAL-62
Description: SANGER: Inhibition of human CAL-62 cell growth in a cell viability assay.

HuCCT-1 = assay type: functional, cell-based, Homo sapiens, HuCCT1; conditions: Homo sapiens, HuCCT-1
Description: SANGER: Inhibition of human HuCCT1 cell growth in a cell viability assay.

BT-549 = assay type: functional, cell-based, Homo sapiens; conditions: Homo sapiens, BT-549
Description: SANGER: Inhibition of human BT-549 cell growth in a cell viability assay.

## CO[C@H]1C[C@@H]2CC[C@@H](C)[C@@](O)(O2)C(=O)C(=O)N2CCCC[C@H]2C(=O)O[C@H]([C@H](C)C[C@@H]2CC[C@@H](OC(=O)C(C)(CO)CO)[C@H](OC)C2)CC(=O)[C@H](C)/C=C(\C)[C@@H](O)[C@@H](OC)C(=O)[C@H](C)C[C@H](C)/C=C/C=C/C=C/1C [TEMSIROLIMUS]
SW13
  IC50: 0.186 µM
UO-31
  IC50: > 0.2 µM
MDA-MB-415
  IC50: 0.036 µM
SW1463
  IC50: > 0.2 µM
HO-1-N-1
  IC50: 0.0082 µM
MKN-7
  IC50: > 0.2 µM
FaDu
  IC50: > 0.2 µM
BFTC-905
  IC50: > 0.2 µM
SW1417
  IC50: > 0.2 µM
DU-145
  IC50: > 0.2 µM
KYSE-450
  IC50: > 0.2 µM
COR-L23
  IC50: > 0.2 µM
CAMA-1
  IC50: 0.00477 µM
PANC-08-13
  IC50: > 0.2 µM
HSC-4
  IC50: < 0.000781 µM
PC-3
  IC50: 0.00914 µM
HMV-2 cell line
  IC50: > 0.2 µM
CAPAN-1
  IC50: > 0.2 µM
A673
  IC50: 0.161 µM
HCC70
  IC50: 0.158 µM
23132-87
  IC50: 0.0647 µM
CAL-33
  IC50: > 0.2 µM
MG-63
  IC50: 0.134 µM
SK-MEL-30
  IC50: > 0.2 µM
BCPAP
  IC50: 0.0585 µM
A-431
  IC50: > 0.2 µM
LCLC-103H cell line
  IC50: > 0.2 µM
MDA-MB-453
  IC50: > 0.2 µM
ACHN
  IC50: > 0.2 µM
Calu-3
  IC50: > 0.2 µM
SK-MES-1
  IC50: > 0.2 µM
D-423MG
  IC50: > 0.2 µM
EFM-19
  IC50: 0.0815 µM
8505C
  IC50: > 0.2 µM
NCI-H2405
  IC50: > 0.2 µM
NB14
  IC50: 0.1 µM
NCI-H2052
  IC50: > 0.2 µM
COLO-680N
  IC50: > 0.2 µM
LK-2
  IC50: > 0.2 µM
CAL-62
  IC50: 0.117 µM
HuCCT-1
  IC50: > 0.2 µM
BT-549
  IC50: > 0.2 µM

## CS(=O)(=O)c1ccc(C(=O)Nc2ccc(Cl)c(-c3ccccn3)c2)c(Cl)c1 [VISMODEGIB]
SW13
  IC50: > 10 µM
UO-31
  IC50: > 10 µM
MDA-MB-415
  IC50: > 10 µM
SW1463
  IC50: > 10 µM
HO-1-N-1
  IC50: > 10 µM
MKN-7
  IC50: > 10 µM
FaDu
  IC50: > 10 µM
BFTC-905
  IC50: > 10 µM
SW1417
  IC50: > 10 µM
DU-145
  IC50: > 10 µM
KYSE-450
  IC50: > 10 µM
COR-L23
  IC50: > 10 µM
CAMA-1
  IC50: > 10 µM
PANC-08-13
  IC50: > 10 µM
HSC-4
  IC50: > 10 µM
PC-3
  IC50: > 10 µM
HMV-2 cell line
  IC50: > 10 µM
CAPAN-1
  IC50: > 10 µM
A673
  IC50: > 10 µM
HCC70
  IC50: > 10 µM
23132-87
  IC50: 4.4 µM
CAL-33
  IC50: > 10 µM
MG-63
  IC50: > 10 µM
SK-MEL-30
  IC50: > 10 µM
BCPAP
  IC50: > 10 µM
A-431
  IC50: > 10 µM
LCLC-103H cell line
  IC50: > 10 µM
MDA-MB-453
  IC50: > 10 µM
ACHN
  IC50: > 10 µM
Calu-3
  IC50: > 10 µM
SK-MES-1
  IC50: > 10 µM
D-423MG
  IC50: > 10 µM
EFM-19
  IC50: > 10 µM
8505C
  IC50: > 10 µM
NCI-H2405
  IC50: > 10 µM
NB14
  IC50: > 10 µM
NCI-H2052
  IC50: > 10 µM
COLO-680N
  IC50: > 10 µM
LK-2
  IC50: > 10 µM
CAL-62
  IC50: > 10 µM
HuCCT-1
  IC50: > 10 µM
BT-549
  IC50: > 10 µM

## Nc1cccc2c1CN(C1CCC(=O)NC1=O)C2=O (stereo not drawn) [LENALIDOMIDE]
SW13
  IC50: > 5 µM
UO-31
  IC50: > 5 µM
MDA-MB-415
  IC50: > 5 µM
SW1463
  IC50: > 5 µM
HO-1-N-1
  IC50: > 5 µM
MKN-7
  IC50: > 5 µM
FaDu
  IC50: > 5 µM
BFTC-905
  IC50: > 5 µM
SW1417
  IC50: > 5 µM
DU-145
  IC50: > 5 µM
KYSE-450
  IC50: > 5 µM
COR-L23
  IC50: > 5 µM
CAMA-1
  IC50: > 5 µM
PANC-08-13
  IC50: > 5 µM
HSC-4
  IC50: > 5 µM
PC-3
  IC50: > 5 µM
HMV-2 cell line
  IC50: > 5 µM
CAPAN-1
  IC50: > 5 µM
A673
  IC50: > 5 µM
HCC70
  IC50: > 5 µM
23132-87
  IC50: > 5 µM
CAL-33
  IC50: > 5 µM
MG-63
  IC50: > 5 µM
SK-MEL-30
  IC50: > 5 µM
BCPAP
  IC50: > 5 µM
A-431
  IC50: > 5 µM
LCLC-103H cell line
  IC50: > 5 µM
MDA-MB-453
  IC50: > 5 µM
ACHN
  IC50: > 5 µM
Calu-3
  IC50: > 5 µM
SK-MES-1
  IC50: > 5 µM
D-423MG
  IC50: > 5 µM
EFM-19
  IC50: > 5 µM
8505C
  IC50: > 5 µM
NCI-H2405
  IC50: > 5 µM
NB14
  IC50: > 5 µM
NCI-H2052
  IC50: > 5 µM
COLO-680N
  IC50: > 5 µM
LK-2
  IC50: > 5 µM
CAL-62
  IC50: > 5 µM
HuCCT-1
  IC50: > 5 µM
BT-549
  IC50: > 5 µM

## Cc1cn(-c2cc(NC(=O)c3ccc(C)c(Nc4nccc(-c5cccnc5)n4)c3)cc(C(F)(F)F)c2)cn1 [NILOTINIB]
SW13
  IC50: > 2 µM
UO-31
  IC50: > 2 µM
MDA-MB-415
  IC50: > 2 µM
SW1463
  IC50: > 2 µM
HO-1-N-1
  IC50: > 2 µM
MKN-7
  IC50: > 2 µM
FaDu
  IC50: > 2 µM
BFTC-905
  IC50: > 2 µM
SW1417
  IC50: > 2 µM
DU-145
  IC50: > 2 µM
KYSE-450
  IC50: > 2 µM
COR-L23
  IC50: > 2 µM
CAMA-1
  IC50: > 2 µM
PANC-08-13
  IC50: > 2 µM
HSC-4
  IC50: > 2 µM
PC-3
  IC50: > 2 µM
HMV-2 cell line
  IC50: 0.749 µM
CAPAN-1
  IC50: > 2 µM
A673
  IC50: > 2 µM
HCC70
  IC50: > 2 µM
23132-87
  IC50: > 2 µM
CAL-33
  IC50: > 2 µM
MG-63
  IC50: > 2 µM
SK-MEL-30
  IC50: > 2 µM
BCPAP
  IC50: > 2 µM
A-431
  IC50: > 2 µM
LCLC-103H cell line
  IC50: > 2 µM
MDA-MB-453
  IC50: > 2 µM
ACHN
  IC50: > 2 µM
Calu-3
  IC50: > 2 µM
SK-MES-1
  IC50: > 2 µM
D-423MG
  IC50: > 2 µM
EFM-19
  IC50: > 2 µM
8505C
  IC50: > 2 µM
NCI-H2405
  IC50: > 2 µM
NB14
  IC50: > 2 µM
NCI-H2052
  IC50: > 2 µM
COLO-680N
  IC50: > 2 µM
LK-2
  IC50: > 2 µM
CAL-62
  IC50: > 2 µM
HuCCT-1
  IC50: > 2 µM
BT-549
  IC50: > 2 µM
